According to patent publication US8722690B2, “Mesoionic pesticides” (E I du Pont de Nemours and Company, priority 2009, dated 2014):

Experiments:
Format in all cases: in vivo
[1] = tested on: green peach aphid (Myzus persicae); assay: whole plant or invertebrate; settings: 144 h, 6 days, radish plant; for mortality at 50 ppm: sprayed at 50 ppm
Excerpt: For evaluating control of green peach aphid (Myzus persicae) through contact and/or systemic means, the test unit consisted of a small open container with a 12-15-day-old radish plant inside. This was pre-infested by placing on a leaf of the test plant 30-40 aphids on a piece of leaf excised from a culture plant (cut-leaf method). The aphids moved onto the test plant as the leaf piece desiccated. After pre-infestation, the soil of the test unit was covered with a layer of sand.
Test compounds were formulated and sprayed at 50 ppm and/or 10 ppm as described for Test A. The applications were replicated three times. After spraying of the formulated test compound, each test unit was allowed to dry for 1 h and then a black, screened cap was placed on top. The test units were held for 6 days in a growth chamber at 19-21° C. and 50-70% relative humidity. Each test unit was then visually assessed for insect mortality.

[2] = tested on: cotton melon aphid (Aphis gossypii); assay: Test D: control of cotton melon aphid on cotton plant, contact and/or systemic; settings: for mortality at 50 ppm: sprayed at 50 ppm
Excerpt: For evaluating control of cotton melon aphid (Aphis gossypii) through contact and/or systemic means, the test unit consisted of a small open container with a 6-7-day-old cotton plant inside. This was pre-infested with 30-40 insects on a piece of leaf according to the cut-leaf method described for Test C, and the soil of the test unit was covered with a layer of sand.
Test compounds were formulated and sprayed at 50 ppm and/or 10 ppm as described for Test C. The applications were replicated three times. After spraying, the test units were maintained in a growth chamber and then visually rated as described for Test C.

[3] = tested on: corn planthopper (Peregrinus maidis); assay: whole plant or invertebrate; settings: 144 h, 6 days, maize plant, very good to excellent levels of control efficacy; for mortality at 10 ppm: sprayed at 10 ppm; for mortality at 50 ppm: sprayed at 50 ppm
Procedure: For evaluating control of corn planthopper (Peregrinus maidis) through contact and/or systemic means, the test unit consisted of a small open container with a 3-4-day-old maize plant (spike) inside. White sand was added to the top of the soil prior to application. Test compounds were formulated and sprayed at 50 ppm and/or 10 ppm, and replicated three times as described for Test A. After spraying, the test units were allowed to dry for 1 h before they were post-infested with ˜15-20 nymphs (18 to 21 day old) by sprinkling them onto the sand with a salt shaker. A black, screened cap was placed on the top of each test unit, and the test units were held for 6 days in a growth chamber at 22-24° C. and 50-70% relative humidity. Each test unit was then visually assessed for insect mortality.

[4] = tested on: potato leafhopper (Empoasca fabae); assay: whole plant or invertebrate; settings: 144 h, 6 days, Soleil bean plant, very good to excellent levels of control efficacy; for mortality at 50 ppm: sprayed at 50 ppm; for mortality at 10 ppm: sprayed at 10 ppm
Procedure: For evaluating control of potato leafhopper (Empoasca fabae) through contact and/or systemic means, the test unit consisted of a small open container with a 5-6-day-old Soleil bean plant (primary leaves emerged) inside. White sand was added to the top of the soil and one of the primary leaves was excised prior to application.
Test compounds were formulated and sprayed at 50 ppm and/or 10 ppm, and the tests were replicated three times as described for Test A. After spraying, the test units were allowed to dry for 1 h before they were post-infested with 5 potato leafhoppers (18-21-day-old adults). A black, screened cap was placed on the top of each test unit, and the test units were held for 6 days in a growth chamber at 24° C. and 70% relative humidity. Each test unit was then visually assessed for insect mortality.

CCn1ccn2c(=O)c(-c3cccc(C(F)(F)F)c3)c([O-])[n+](Cc3cnc(Cl)s3)c12 [Compound 340]
≥ 80%: mortality at 50 ppm [1] | mortality at 10 ppm ([2]; sprayed at 10 ppm) | mortality at 50 ppm [2] | mortality at 10 ppm [3] | mortality at 50 ppm [3] | mortality at 50 ppm [4]

O=c1c(-c2ccccc2F)c([O-])[n+](Cc2cnc(Cl)s2)c2c3ccsc3ccn12 [Compound 357]
≥ 80%: mortality at 50 ppm [1] | mortality at 10 ppm [4] | mortality at 50 ppm [4]

CCn1ccn2c(=O)c(-c3ccccc3)c([O-])[n+](Cc3cnc(Cl)s3)c12 [Compound 333]
≥ 80%: mortality at 10 ppm ([1]; sprayed at 10 ppm) | mortality at 50 ppm [1] | mortality at 50 ppm [2] | mortality at 10 ppm [3] | mortality at 50 ppm [3] | mortality at 10 ppm [4] | mortality at 50 ppm [4]

O=c1c(-c2ccccc2)c([O-])[n+](Cc2cnc(Cl)s2)c2c3ccsc3ccn12 [Compound 356]
≥ 80%: mortality at 50 ppm [4]
